Assay results published in US20220033407A1, “N-(pyridin-2-ylsulfonyl)cyclopropanecarboxamide Derivatives and their Use in the Treatment of Disease” (NOVARTIS AG, priority 2018, published 2022).

Columns and labels:
[1] = biological target: T1, delF508-CFTR-HRP (Homo sapiens, UniProt P13569, DEL508-508); assay: Measurement of delF508-CFTR-HRP surface expression in CFBE41o- cells (HRP luminescence); assay type: cell-based; details: for Emax: CFBE41o-, read-out: DelF508-CFTR-HRP Amax %; for EC50: mean of at least two replicates;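 on DelF508-CFTR-HRP Amax %: percent efficacy relative to a reference CFTR corrector compound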
T1 construct: expressed in transfected cells
T1 sequence (P13569 with tags, fused parts or gaps DEL508-508): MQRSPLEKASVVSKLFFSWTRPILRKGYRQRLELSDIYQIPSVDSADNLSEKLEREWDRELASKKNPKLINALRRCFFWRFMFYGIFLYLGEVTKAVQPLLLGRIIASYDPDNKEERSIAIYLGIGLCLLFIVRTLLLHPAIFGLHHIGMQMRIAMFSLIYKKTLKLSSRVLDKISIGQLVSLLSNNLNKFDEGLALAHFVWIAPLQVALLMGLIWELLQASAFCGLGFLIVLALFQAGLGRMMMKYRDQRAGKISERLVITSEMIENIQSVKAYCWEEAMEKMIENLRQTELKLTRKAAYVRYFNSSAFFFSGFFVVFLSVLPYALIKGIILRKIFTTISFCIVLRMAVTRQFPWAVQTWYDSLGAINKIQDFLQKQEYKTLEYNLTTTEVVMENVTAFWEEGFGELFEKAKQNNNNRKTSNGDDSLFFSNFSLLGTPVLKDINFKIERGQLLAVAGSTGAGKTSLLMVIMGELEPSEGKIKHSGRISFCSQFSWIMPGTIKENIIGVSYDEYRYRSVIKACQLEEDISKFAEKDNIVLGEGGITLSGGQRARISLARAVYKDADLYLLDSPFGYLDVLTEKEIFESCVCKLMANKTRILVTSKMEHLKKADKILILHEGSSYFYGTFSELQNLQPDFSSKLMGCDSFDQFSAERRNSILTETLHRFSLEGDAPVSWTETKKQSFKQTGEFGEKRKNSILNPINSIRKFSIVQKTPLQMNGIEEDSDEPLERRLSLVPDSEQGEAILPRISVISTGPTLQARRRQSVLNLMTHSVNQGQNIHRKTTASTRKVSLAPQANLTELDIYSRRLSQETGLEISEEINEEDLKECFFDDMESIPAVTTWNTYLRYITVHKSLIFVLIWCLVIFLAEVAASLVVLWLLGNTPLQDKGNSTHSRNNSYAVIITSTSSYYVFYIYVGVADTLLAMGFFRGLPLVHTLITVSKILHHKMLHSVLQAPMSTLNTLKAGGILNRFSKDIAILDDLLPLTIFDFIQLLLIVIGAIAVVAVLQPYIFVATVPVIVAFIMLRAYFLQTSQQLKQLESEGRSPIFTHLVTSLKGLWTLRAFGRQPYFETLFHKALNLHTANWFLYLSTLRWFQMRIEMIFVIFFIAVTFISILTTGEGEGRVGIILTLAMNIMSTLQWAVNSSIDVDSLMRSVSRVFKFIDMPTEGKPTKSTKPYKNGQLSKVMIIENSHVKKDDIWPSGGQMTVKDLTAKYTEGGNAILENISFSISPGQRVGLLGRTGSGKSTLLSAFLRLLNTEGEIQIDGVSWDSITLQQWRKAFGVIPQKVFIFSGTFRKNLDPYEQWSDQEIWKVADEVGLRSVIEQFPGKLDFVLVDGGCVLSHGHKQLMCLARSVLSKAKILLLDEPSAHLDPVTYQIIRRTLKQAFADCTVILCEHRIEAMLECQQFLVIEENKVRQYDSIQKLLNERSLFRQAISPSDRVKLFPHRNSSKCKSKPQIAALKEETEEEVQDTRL
Outline: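 Stably transfected CFBE41o- cells carrying HRP in the fourth extracellular loop of delF508-CFTR, induced with 500 ng/mL doxycycline for 48 h, then compound-treated 24 h at 37° C (10-point, 3-fold, top 10 μM). Surface HRP detected by luminescent substrate; EC50 from logistic fit, triplicates, normalized to lowest-concentration median.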

[2] = biological target: T2, delF508-CFTR (Homo sapiens, UniProt P13569, DEL508-508); assay: delF508-CFTR functional activity in primary human bronchial epithelial cells (HBECs), Multi-Transepithelial Clamp Circuit (MTECC-24) assay, equivalent short circuit current; assay type: cell-based; details: primary CF HBECs; for MTECC24 CFHBEC-Amax %: relative to reference combination 2 μM 3-(6-(1-(2,2-difluorobenzo[d][1,3]dioxol-5-yl)cyclopropane-1-carboxamido)-3-methylpyridin-2-yl)benzoic acid (24 h) + 0.5 μM N-(2,4-di-tert-butyl-5-hydroxyphenyl)-4-oxo-1,4-dihydroquinoline-3-carboxamide; for EC50: test compound added 24 h before assay, potentiator (S)-3-amino-6-methoxy-N-(3,3,3-trifluoro-2-hydroxy-2-methylpropyl)-5-(trifluoromethyl)picolinamide present at assay, mean of at least two replicates, read-out: MTECC24 CFHBEC-EC50
T2 construct: functional activity of the CFTR channel (Chloride ion transport) in patient derived primary human bronchial epithelial cells; host or cells: patient-derived primary human bronchial epithelial cells (HBECs), delF508-CFTR
T2 sequence (P13569 with tags, fused parts or gaps DEL508-508): as above
Outline: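 Patient-derived delF508 HBECs, grown at air-liquid interface about two weeks, were corrected with compound basolaterally for 24 h. Compound was then re-added apically and basolaterally in HEPES pH7.4 assay medium, with sequential modulators including forskolin and the picolinamide potentiator. Ieq was recorded, normalised to 0.1% DMSO wells, and EC50 fitted from 10-point curves.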

Structure (SMILES) | Emax [1] [%] | EC50 [1] [nM] | MTECC24 CFHBEC-Amax % [2] [%] | EC50 [2] [nM]
Cc1ccc(OC2CCC3CCCCC3C2)c(OC2(C(=O)NS(=O)(=O)c3cccc(N4CC[C@H](O)C4)n3)CC2)c1 (stereo partly drawn) [Example 6-9, 1-(2-((decahydronaphthalen-2-yl)oxy)-5-methylphenoxy)-N-((6-((S)-3-hydroxypyrrolidin-1-yl)pyridin-2-yl)sulfonyl)cyclopropanecarboxamide] | 382 | 1280 | 107.4 | 289
Cc1ccc(C2CCCCC2)c(OC2(C(=O)NS(=O)(=O)c3cccc(N4CCC(C)(C(N)=O)CC4)n3)CC2)c1 [Example 2-14, 1-(6-(N-(1-(2-cyclohexyl-5-methylphenoxy)cyclopropanecarbonyl)sulfamoyl)pyridin-2-yl)-4-methylpiperidine-4-carboxamide] | 319 | 2780 | 75 | 31
CC1(O)CCN(c2cccc(S(=O)(=O)NC(=O)C3(Oc4cc(Cl)ccc4C4CC5(CCC5)C4)CC3)n2)CC1 [Example 7-12, 1-(5-Chloro-2-(spiro[3.3]heptan-2-yl)phenoxy)-N-((6-(4-hydroxy-4-methylpiperidin-1-yl)pyridin-2-yl)sulfonyl)cyclopropane-1-carboxamide] | 529 | 1090 | 152.6 | 195
Cc1ccc(C2CCCCC2)c(OC2(C(=O)NS(=O)(=O)c3cccc(N4CCC(C)(NC(=O)C5CC5)CC4)n3)CC2)c1 [Example 2-10, 1-(2-Cyclohexyl-5-methylphenoxy)-N-((6-(4-(cyclopropanecarboxamido)-4-methylpiperidin-1-yl)pyridin-2-yl)sulfonyl)cyclopropanecarboxamide] | 327 | 1810 | 56 | 3
Cc1ccc(C2CCCCC2)c(OC2(C(=O)NS(=O)(=O)c3cccc(N4CCC(C)(NC(=S)NC5CC5)CC4)n3)CC2)c1 [Example 2-23, 1-(2-Cyclohexyl-5-methylphenoxy)-N-((6-(4-(3-cyclopropylthioureido)-4-methylpiperidin-1-yl)pyridin-2-yl)sulfonyl)cyclopropanecarboxamide] | 330 | 1850 | 66 | 4
Cc1ccc(C2CCCCC2)c(OC2(C(=O)NS(=O)(=O)c3cccc(N4CCN(c5ccccc5)CC4)n3)CC2)c1 [Example 2-54, 1-(2-Cyclohexyl-5-methylphenoxy)-N-((6-(4-phenylpiperazin-1-yl)pyridin-2-yl)sulfonyl)cyclopropane-1-carboxamide] | 513 | 650 | 70 | 14
CC1(C)CCN(c2ccc(Cl)cc2OC2(C(=O)NS(=O)(=O)c3cccc(N4CCC(O)CC4)n3)CC2)CC1 [Example 9-41, 1-(5-Chloro-2-(4,4-dimethylpiperidin-1-yl)phenoxy)-N-((6-(4-hydroxypiperidin-1-yl)pyridin-2-yl)sulfonyl)cyclopropane-1-carboxamide] | 656 | 1580 | 79.3 | 290
Cc1ccc(C2CCCCC2)c(OC2(C(=O)NS(=O)(=O)c3cccc(N4CCCC(NC(=O)OC(C)(C)C)C4)n3)CC2)c1 (stereo not drawn) [Example 2-12, Tert-butyl (1-(6-(N-(1-(2-cyclohexyl-5-methylphenoxy)cyclopropanecarbonyl)sulfamoyl)pyridin-2-yl)piperidin-3-yl)carbamate] | 604 | 1530 | 78 | 8
Cc1ccc(C2CCCCC2)c(OC2(C(=O)NS(=O)(=O)c3cccc(N4CCC(CF)(NC(=O)OC(C)(C)C)CC4)n3)CC2)c1 [Example 2-42, Tert-butyl (1-(6-(N-(1-(2-cyclohexyl-5-methylphenoxy)cyclopropanecarbonyl)sulfamoyl)pyridin-2-yl)-4-(fluoromethyl)piperidin-4-yl)carbamate] | 284 | 880 | 90 | 6
Cc1ccc(C2CCCCC2)c(OC2(C(=O)NS(=O)(=O)c3cccc(N)n3)CC2)c1 [Example 1-1, N-((6-Aminopyridin-2-yl)sulfonyl)-1-(2-cyclohexyl-5-methylphenoxy)cyclopropane-1-carboxamide] | 421 | 2010 | 91 | 15
NC1(C(F)(F)F)CCN(c2cccc(S(=O)(=O)NC(=O)C3(Oc4cc(Cl)ccc4C4CC5(CCC5)C4)CC3)n2)CC1 [Example 7-17, N-((6-(4-amino-4-(trifluoromethyl)piperidin-1-yl)pyridin-2-yl)sulfonyl)-1-(5-chloro-2-(spiro[3.3]heptan-2-yl)phenoxy)cyclopropane-1-carboxamide] | 377 | 420 | 128.4 | 57
Cc1ccc(C2CCCCC2)c(OC2(C(=O)NS(=O)(=O)c3cccc(NC[C@H](C)O)n3)CC2)c1 [Example 2-47, (S)-1-(2-Cyclonexyl-5-methylphenoxy)-N-((6-((2-hydroxypropyl)amino)pyridin-2-yl)sulfonyl)cyclopropane-1-carboxamide] | 747 | 2420 | 97 | 6
Cc1ccc(OC2Cc3ccccc3C2)c(OC2(C(=O)NS(=O)(=O)c3cccc(N4CC[C@H](O)C4)n3)CC2)c1 [Example 6-10, (S)-1-(2-((2,3-dihydro-1H-inden-2-yl)oxy)-5-methylphenoxy)-N-((6-(3-hydroxypyrrolidin-1-yl)pyridin-2-yl)sulfonyl)cyclopropanecarboxamide] | 350 | 2670 | 79.2 | 1440
COC1CN(c2cccc(S(=O)(=O)NC(=O)C3(Oc4cc(C)ccc4C4CCCCC4)CC3)n2)C1 [Example 2-18, 1-(2-Cyclohexyl-5-methylphenoxy)-N-((6-(3-methoxyazetidin-1-yl)pyridin-2-yl)sulfonyl)cyclopropanecarboxamide] | 597 | 1580 | 91 | 21
Cc1ccc(C2CCCCC2)c(OC2(C(=O)NS(=O)(=O)c3cccc(NC[C@@H](C)O)n3)CC2)c1 [Example 2-46, (R)-1-(2-cyclohexyl-5-methylphenoxy)-N-((6-((2-hydroxypropyl)amino)pyridin-2-yl)sulfonyl)cyclopropane-1-carboxamide] | 813 | 2860 | 89 | 3
Cc1ccc(C2CCCCC2)c(OC2(C(=O)NS(=O)(=O)c3cccc(N4CCC(C)(NC(=O)OC(C)(C)C)C4)n3)CC2)c1 (stereo not drawn) [Example 2-24, Tert-butyl (1-(6-(N-(1-(2-cyclohexyl-5-methylphenoxy)cyclopropanecarbonyl)sulfamoyl)pyridin-2-yl)-3-methylpyrrollidin-3-yl)carbamate] | 591 | 1270 | 62 | 5
Cc1ccc(OC2CCCCCC2)c(OC2(C(=O)NS(=O)(=O)c3cccc(N4CC[C@H](O)C4)n3)CC2)c1 [Example 6-6, (S)-1-(2-(cycloheptyloxy)-5-methylphenoxy)-N-((6-(3-hydroxypyrrolidin-1-yl)pyridin-2-yl)sulfonyl)cyclopropanecarboxamide] | 462 | 2070 | 110.6 | 668
O=C(NS(=O)(=O)c1cccc(N2CCC(O)CC2)n1)C1(Oc2cc(Cl)ccc2C2CC3(CCC3)C2)CC1 [Example 7-11, 1-(5-Chloro-2-(spiro[3.3]heptan-2-yl)phenoxy)-N-((6-(4-hydroxypiperidin-1-yl)pyridin-2-yl)sulfonyl)cyclopropane-1-carboxamide] | 446 | 1260 | 154.0 | 197
Cc1ccc(C2CCCCC2)c(OC2(C(=O)NS(=O)(=O)c3cccc(N4CCNC(=O)CC4)n3)CC2)c1 [Example 2-40, 1-(2-Cyclohexyl-5-methylphenoxy)-N-((6-(5-oxo-1,4-diazepan-1-yl)pyridin-2-yl)sulfonyl)cyclopropanecarboxamide] | 123 | 3790 | 76 | 121
C[C@@H]1CN(c2cccc(S(=O)(=O)NC(=O)C3(Oc4cc(Cl)ccc4C4CCC(C)(C)CC4)CC3)n2)CCO1 [Example 4-13, (R)-1-(5-Chloro-2-(4,4-dimethylcyclohexyl)phenoxy)-N-((6-(2-methylmorpholino)pyridin-2-yl)sulfonyl)cyclopropane-1-carboxamide] | 591 | 1410 | 83 | 50
O=C(NS(=O)(=O)c1cccc(N2CC[C@H](O)C2)n1)C1(Oc2cc(Cl)ccc2N2CC3CCCC3C2)CC1 (stereo partly drawn) [Example 9-24, 1-(5-Chloro-2-(hexahydrocyclopenta[c]pyrrol-2(1H)-yl)phenoxy)-N-((6-((S)-3-hydroxypyrrolidin-1-yl)pyridin-2-yl)sulfonyl)cyclopropanecarboxamide] | 641 | 2170 | 135.8 | 389
